# Test results as given in the Kinase Knowledgebase extract (Sharma et al. 2016).
# Target: CDK2 (UniProt P24941)
# Assay: Enzyme Assay
row,SMILES,IC50
1,O=C(CN1CCN(c2ccc(Cl)cc2)CC1)Nc1n[nH]c2ccc(N3CCCS3(=O)=O)cc12,< 10000 nM
2,O=C(Cc1ccc(S(=O)(=O)N2CCOCC2)cc1)Nc1n[nH]c2ccc(N3CCCS3(=O)=O)cc12,< 100 nM
3,O=C(Cc1ccc(N2CCOCC2)cc1)Nc1n[nH]c2ccc(N3CCCS3(=O)=O)cc12,< 100 nM
4,O=C(Cc1ccc(CN2CCOCC2)cc1)Nc1n[nH]c2ccc(N3CCCS3(=O)=O)cc12,< 100 nM
5,CC(C)c1ccc(CC(=O)Nc2n[nH]c3ccc(N4CCCS4(=O)=O)cc23)cc1,< 50 nM
6,O=C(Cc1cccc([N+](=O)[O-])c1)Nc1n[nH]c2ccc(N3CCCS3(=O)=O)cc12,< 50 nM
7,CCNc1cccc(CC(=O)Nc2n[nH]c3ccc(N4CCCS4(=O)=O)cc23)c1,< 500 nM
8,CN1CCN(CC(=O)Nc2n[nH]c3ccc(N4CCCS4(=O)=O)cc23)CC1,< 10000 nM
9,NCCOc1ccc(CC(=O)Nc2n[nH]c3ccc(N4CCCS4(=O)=O)cc23)cc1,< 100 nM
10,CC(=O)Nc1nc(CC(=O)Nc2n[nH]c3ccc(N4CCCS4(=O)=O)cc23)cs1,< 10000 nM
11,O=C(Cc1ccc(F)cc1)Nc1n[nH]c2ccc(N3CCCS3(=O)=O)cc12,< 50 nM
12,O=C(Cc1ccc(N(Cc2ccccc2)Cc2ccccc2)cc1)Nc1n[nH]c2ccc(N3CCCS3(=O)=O)cc12,< 500 nM
13,CC(=NO)Nc1n[nH]c2ccc(N3CCCS3(=O)=O)cc12,< 100000 nM
14,CCOc1ccc(CC(=O)Nc2n[nH]c3ccc(N4CCCS4(=O)=O)cc23)cc1S(=O)(=O)N1CCOCC1,< 1000 nM
15,Nc1cccc(CC(=O)Nc2n[nH]c3ccc(N4CCCS4(=O)=O)cc23)c1,< 50 nM
16,O=C(Cc1ccc([N+](=O)[O-])cc1)Nc1n[nH]c2ccc(N3CCCS3(=O)=O)cc12,< 50 nM
17,O=C(Cn1cnc2ccccc21)Nc1n[nH]c2ccc(N3CCCS3(=O)=O)cc12,< 50 nM
18,O=C(Cc1cccc(Cl)c1)Nc1n[nH]c2ccc(N3CCCS3(=O)=O)cc12,< 50 nM
19,O=C(Cn1cnc(-c2ccc(Br)cc2)c1)Nc1n[nH]c2ccc(N3CCCS3(=O)=O)cc12,< 100 nM
20,Cc1ccccc1CC(=O)Nc1n[nH]c2ccc(N3CCCS3(=O)=O)cc12,< 100 nM
21,COc1ccc(N2CCN(CC(=O)Nc3n[nH]c4ccc(N5CCCS5(=O)=O)cc34)CC2)cc1,< 10000 nM
22,O=C(Cc1ccc(O)cc1)Nc1n[nH]c2ccc(N3CCCS3(=O)=O)cc12,< 50 nM
23,COCCOCCOCCOc1ccc(CC(=O)Nc2n[nH]c3ccc(N4CCCS4(=O)=O)cc23)cc1,< 100 nM
24,CN1CCN(Cc2ccc(CC(=O)Nc3n[nH]c4ccc(N5CCCS5(=O)=O)cc34)cc2)CC1,< 100 nM
25,CN1CCN(S(=O)(=O)c2ccc(CC(=O)Nc3n[nH]c4ccc(N5CCCS5(=O)=O)cc34)cc2)CC1,< 1000 nM
26,CC(C)(C)OC(=O)Nc1nc(CC(=O)Nc2n[nH]c3ccc(N4CCCS4(=O)=O)cc23)cs1,< 100 nM
27,O=C(Cn1cnc(-c2ccc3ccccc3c2)c1)Nc1n[nH]c2ccc(N3CCCS3(=O)=O)cc12,< 50 nM

row,SMILES,IC50
1,CC(=S)Nc1n[nH]c2ccc(N3CCCS3(=O)=O)cc12,< 50000 nM
2,O=C(Cc1ccc(OCc2ccccc2)cc1)Nc1n[nH]c2ccc(N3CCCS3(=O)=O)cc12,< 100 nM
3,O=C(Cc1ccc(-c2ccccc2)cc1)Nc1n[nH]c2ccc(N3CCCS3(=O)=O)cc12,< 50 nM
4,O=C(Cc1ccc(Cl)cc1)Nc1n[nH]c2ccc(N3CCCS3(=O)=O)cc12,< 50 nM
5,O=C(CN1CCN(c2ccccc2)CC1)Nc1n[nH]c2ccc(N3CCCS3(=O)=O)cc12,< 500 nM
6,O=C(Cc1ccc(Cl)c(Cl)c1)Nc1n[nH]c2ccc(N3CCCS3(=O)=O)cc12,< 50 nM
7,O=C(Cc1ccc2ccccc2c1)Nc1n[nH]c2ccc(N3CCCS3(=O)=O)cc12,< 50 nM
8,CCN(CC)c1ccc(CC(=O)Nc2n[nH]c3ccc(N4CCCS4(=O)=O)cc23)cc1,< 50 nM
9,O=C(Cc1ccc(-c2ccco2)cc1)Nc1n[nH]c2ccc(N3CCCS3(=O)=O)cc12,< 50 nM
10,O=C(Cc1ccc(Oc2ccccc2)cc1)Nc1n[nH]c2ccc(N3CCCS3(=O)=O)cc12,< 100 nM
11,O=C(Cc1cccc2ccccc12)Nc1n[nH]c2ccc(N3CCCS3(=O)=O)cc12,< 50 nM
12,COc1ccc(CC(=O)Nc2n[nH]c3ccc(N4CCCS4(=O)=O)cc23)cc1,< 100 nM
13,CCC(C(=O)Nc1n[nH]c2ccc(N3CCCS3(=O)=O)cc12)c1ccccc1 (stereo not given),< 100000 nM
14,CC(=O)c1ccc(N2CCN(CC(=O)Nc3n[nH]c4ccc(N5CCCS5(=O)=O)cc34)CC2)cc1,< 10000 nM
15,O=C(Nc1n[nH]c2ccc(N3CCCS3(=O)=O)cc12)C1(c2ccccc2)CCCC1,< 100000 nM
16,CCOCCOCCOc1ccc(CC(=O)Nc2n[nH]c3ccc(N4CCCS4(=O)=O)cc23)cc1,< 100 nM
17,O=C(CN1CCOCC1)Nc1n[nH]c2ccc(N3CCCS3(=O)=O)cc12,< 10000 nM
18,O=C(Cc1csc(NCc2ccc(OCc3ccccc3)cc2)n1)Nc1n[nH]c2ccc(N3CCCS3(=O)=O)cc12,< 10000 nM
19,CCN(CC)c1cccc(CC(=O)Nc2n[nH]c3ccc(N4CCCS4(=O)=O)cc23)c1,< 500 nM
20,CCOc1cccc(CC(=O)Nc2n[nH]c3ccc(N4CCCS4(=O)=O)cc23)c1,< 50 nM
21,CS(=O)(=O)c1ccc(CC(=O)Nc2n[nH]c3ccc(N4CCCS4(=O)=O)cc23)cc1,< 50 nM
22,O=C(Cc1ccc(Cn2ccnc2)cc1)Nc1n[nH]c2ccc(N3CCCS3(=O)=O)cc12,< 1000 nM
23,CNc1ccc(CC(=O)Nc2n[nH]c3ccc(N4CCCS4(=O)=O)cc23)cc1,< 50 nM
24,CCOc1ccc(CC(=O)Nc2n[nH]c3ccc(N4CCCS4(=O)=O)cc23)cc1[N+](=O)[O-],< 50 nM
25,O=S1(=O)CCCN1c1ccc2[nH]nc(NC(Cc3ccccc3)=NO)c2c1,< 10000 nM
26,O=C(CCc1ccccc1)Nc1n[nH]c2ccc(N3CCCS3(=O)=O)cc12,< 1000 nM
27,O=C(Cc1ccc(-c2ccncc2)cc1)Nc1n[nH]c2ccc(N3CCCS3(=O)=O)cc12,< 50 nM

row,SMILES,IC50
1,CCNc1nc(CC(=O)Nc2n[nH]c3ccc(N4CCCS4(=O)=O)cc23)cs1,< 500 nM
2,CCOc1ccc(CC(=O)Nc2n[nH]c3ccc(N4CCCS4(=O)=O)cc23)cc1S(=O)(=O)N1CCN(C)CC1,< 1000 nM
3,O=C(Cc1ccc(-c2ccsc2)cc1)Nc1n[nH]c2ccc(N3CCCS3(=O)=O)cc12,< 50 nM
4,CC(=O)Nc1n[nH]c2ccc(N3CCCS3(=O)=O)cc12,> 100000 nM
5,O=C(CN1CCCCC1)Nc1n[nH]c2ccc(N3CCCS3(=O)=O)cc12,< 10000 nM
6,O=C(Cn1cnc(-c2ccccc2)c1)Nc1n[nH]c2ccc(N3CCCS3(=O)=O)cc12,< 50 nM
7,O=C(Nc1n[nH]c2ccc(N3CCCS3(=O)=O)cc12)C(c1ccccc1)C1CCCC1 (stereo not given),< 100000 nM
8,O=C(Cc1ccc(Br)cc1)Nc1n[nH]c2ccc(N3CCCS3(=O)=O)cc12,< 50 nM
9,CCOc1ccccc1N1CCN(CC(=O)Nc2n[nH]c3ccc(N4CCCS4(=O)=O)cc23)CC1,< 10000 nM
10,O=C(CN1CCc2ccccc2C1)Nc1n[nH]c2ccc(N3CCCS3(=O)=O)cc12,< 1000 nM
11,O=C(Cn1cnc(-c2ccc(-c3ccccc3)cc2)c1)Nc1n[nH]c2ccc(N3CCCS3(=O)=O)cc12,< 500 nM
12,Cc1ccc(CC(=O)Nc2n[nH]c3ccc(N4CCCS4(=O)=O)cc23)cc1,< 50 nM
13,CCOc1ccc(CC(=O)Nc2n[nH]c3ccc(N4CCCS4(=O)=O)cc23)cc1S(N)(=O)=O,< 1000 nM
14,COc1cc(CC(=O)Nc2n[nH]c3ccc(N4CCCS4(=O)=O)cc23)cc(OC)c1,< 50 nM
15,CCN(CC)c1nc(CC(=O)Nc2n[nH]c3ccc(N4CCCS4(=O)=O)cc23)cs1,< 500 nM
16,CCNc1ccc(CC(=O)Nc2n[nH]c3ccc(N4CCCS4(=O)=O)cc23)cc1,< 50 nM
17,Nc1ccc(CC(=O)Nc2n[nH]c3ccc(N4CCCS4(=O)=O)cc23)cc1,< 50 nM
18,O=C(Cc1cccc(Br)c1)Nc1n[nH]c2ccc(N3CCCS3(=O)=O)cc12,< 50 nM
19,Cc1cccc(CC(=O)Nc2n[nH]c3ccc(N4CCCS4(=O)=O)cc23)c1,< 50 nM
20,O=C(Cc1ccccc1)Nc1n[nH]c2ccc(N3CCCS3(=O)=O)cc12,< 50 nM
21,CCOc1ccc(CC(=O)Nc2n[nH]c3ccc(N4CCCS4(=O)=O)cc23)cc1Cl,< 100 nM
22,CCOc1ccc(CC(=O)Nc2n[nH]c3ccc(N4CCCS4(=O)=O)cc23)cc1,< 50 nM
23,CSc1ccc(CC(=O)Nc2n[nH]c3ccc(N4CCCS4(=O)=O)cc23)cc1,< 50 nM
24,O=C(Cc1ccc2c(c1)OCO2)Nc1n[nH]c2ccc(N3CCCS3(=O)=O)cc12,< 50 nM
25,O=S1(=O)CCCN1c1ccc2[nH]nc(NC(=S)Cc3ccccc3)c2c1,< 10000 nM
26,Nc1nc(CC(=O)Nc2n[nH]c3ccc(N4CCCS4(=O)=O)cc23)cs1,< 500 nM
